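96-well plates; 48 h exposure; 5 concentrations. Endpoints by linear interpolation between flanking doses. Not reached: highest tested concentration assigned. GI50: concentration for 50% inhibition of growth. TGI marks complete inhibition of growth.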
Key:
Assay in all cases: inhibition of tumour cell growth, NCI panel, 48 h
K-562 leukemia = system: K-562 leukemia
SR leukemia = system: SR leukemia
SNB-19 CNS = system: SNB-19 CNS
NCI-H226 lung = system: NCI-H226 lung
NCI-H23 lung = system: NCI-H23 lung
CCRF-CEM leukemia = system: CCRF-CEM leukemia
SW-620 colon = system: SW-620 colon
MOLT-4 leukemia = system: MOLT-4 leukemia
COLO 205 colon = system: COLO 205 colon
SK-MEL-28 melanoma = system: SK-MEL-28 melanoma

Structure (SMILES) | TGI (K-562 leukemia) [µM] | TGI (SR leukemia) [µM] | TGI (SNB-19 CNS) [µM] | TGI (NCI-H226 lung) [µM] | TGI (NCI-H23 lung) [µM] | TGI (CCRF-CEM leukemia) [µM] | TGI (SW-620 colon) [µM] | TGI (MOLT-4 leukemia) [µM] | TGI (COLO 205 colon) [µM] | TGI (SK-MEL-28 melanoma) [µM] | GI50 (K-562 leukemia) [µM] | GI50 (SR leukemia) [µM] | GI50 (SNB-19 CNS) [µM] | GI50 (NCI-H226 lung) [µM] | GI50 (NCI-H23 lung) [µM] | GI50 (CCRF-CEM leukemia) [µM] | GI50 (SW-620 colon) [µM] | GI50 (MOLT-4 leukemia) [µM] | GI50 (COLO 205 colon) [µM] | GI50 (SK-MEL-28 melanoma) [µM]
NS(=O)(=O)c1ccc(N=C2C(=O)Nc3ccccc32)cc1 | > 100 | > 100 | > 100 | > 100 | > 100 | > 100 | > 100 | > 100 | 98.4 | > 100 | – | – | – | – | – | – | – | – | – | –
O=C(Cc1ccc(Nc2ccnc(C(F)(F)F)c2)cc1)N/N=C/c1ccccc1O | 20.1 | 4.61 | > 100 | > 55.6 | > 59.1 | 8.31 | 17 | 7.79 | 22.8 | 61.4 | 2.74 | 0.352 | 4.36 | 3.85 | 4.23 | 0.716 | 3.02 | 0.904 | 4.33 | 3.89
CCCOc1ccc(/C=N/Nc2cc(C)nc3ccc(Cl)cc23)cc1 | 3.13 | 3.75 | 3.54 | 3.35 | 3.52 | 4.08 | 3.79 | 3.77 | 3.4 | 3.15 | 1.48 | 1.17 | 1.95 | 1.69 | 1.81 | 1.78 | 1.96 | 1.81 | 1.82 | 1.73
N#C/C(=C\c1ccc(F)cc1)n1nc2cccc(F)c2n1 | > 100 | > 100 | > 100 | > 100 | > 100 | > 100 | > 100 | > 100 | > 100 | > 100 | 3.25 | 2.31 | 6.67 | 4.64 | 3.9 | 3.24 | 3.45 | 3.09 | 4.16 | 5.8
CC(C)OCc1cc(CN2CCN(c3cccc(Cl)c3)CC2)c(O)c2ncccc12 | 10.3 | 10.2 | 21.7 | 6.56 | 19 | 9.89 | 17.4 | 3.41 | 19.2 | 14.5 | 0.349 | 0.403 | 0.504 | 1.39 | 1.03 | 0.383 | 0.852 | 0.362 | 5.94 | 0.997
Oc1ccc(Cc2ccc(O)c(C3CC(c4ccc(Cl)cc4)=NN3)c2)cc1C1CC(c2ccc(Cl)cc2)=NN1 (stereo not given) | > 100 | > 100 | > 43.6 | > 44.3 | > 37.1 | > 100 | 16 | > 100 | 23.9 | > 49.9 | 2.51 | 2.77 | 3.65 | 4.29 | 3.07 | 1.94 | 3.23 | 2.84 | 4.17 | 5.74
O=c1[nH]c(F)nc2c1ncn2C1OC(CO)C(O)C1O (stereo not given) | > 100 | > 100 | > 100 | > 100 | > 100 | > 100 | > 100 | > 100 | > 100 | > 100 | > 100 | > 100 | > 100 | > 100 | > 100 | > 100 | > 100 | > 100 | > 100 | > 100
Cc1ccc(NC(=O)/C(=N\NC(N)=S)C(C#N)c2ccccc2C)cc1C (stereo not given) | > 100 | > 100 | > 100 | > 100 | > 100 | > 100 | > 100 | > 100 | > 100 | > 100 | – | – | – | – | – | – | – | – | – | –
N#CC(/C(=N/NC(N)=S)C(=O)Nc1cccc(Cl)c1)c1ccccc1 (stereo not given) | > 100 | > 100 | > 100 | > 100 | > 100 | > 100 | > 100 | > 100 | > 100 | > 100 | – | – | – | – | – | – | – | – | – | –
CCN(CC)CC(O)COc1c(Br)c(Br)c(Br)c2c1OC(C)(C)C2 (stereo not given) | 3.58 | 3.81 | 33.9 | 40.9 | 28.9 | 4.08 | 4.92 | 3.68 | 5.14 | 3.24 | 1.73 | 1.75 | 9.22 | 13.5 | 9.04 | 1.96 | 2.26 | 1.67 | 1.98 | 1.62
COc1cc2c(cc1OCCCCn1c(-c3cccs3)nc3ccccc31)N=C[C@@H]1CCCN1C2=O | > 100 | > 100 | 4.39 | 6.51 | 4.4 | 1.37 | 10.3 | > 100 | 2.58 | 3.27 | 15.5 | 0.45 | 1.53 | 2.13 | 2.05 | 0.247 | 1.84 | 3.79 | 1.07 | 1.53
NC(=N\N=C/c1ccc(Cl)cc1Cl)/C(N)=N\N=C/c1ccc(Cl)cc1Cl | > 100 | > 100 | > 100 | 98 | > 100 | > 100 | > 100 | > 100 | > 100 | > 100 | 63.1 | > 100 | 26.8 | 9.92 | 39.3 | 36.5 | > 54.3 | > 100 | 46.2 | > 100
O=C(O)c1ccc(Oc2nc3ccccc3s2)cc1 | > 100 | > 100 | > 100 | > 100 | > 100 | > 100 | > 100 | > 100 | > 100 | > 100 | – | – | – | – | – | – | – | – | – | –
O=Cc1ccc(-c2ccc(-c3ccc(C=O)o3)[se]2)o1 | > 100 | > 100 | > 100 | > 100 | > 100 | > 100 | > 100 | > 100 | > 100 | > 100 | > 100 | > 100 | > 100 | 41.7 | 56.3 | > 100 | > 100 | > 100 | > 100 | > 100

From PubChem BioAssay (NCI)
